Assay results taken from ChEMBL document CHEMBL1145498, “A systematic interaction map of validated kinase inhibitors with Ser/Thr kinases” (Proc Natl Acad Sci U S A, 2007).

Molecular target: Mitogen-activated protein kinase 6 (Homo sapiens) (UniProt Q16659)
Conditions: not given

Row | ΔTm [°C] | Structure (SMILES)
1 | 0.4 | Nc1n[nH]c2nc3ccccc3nc12 [QUINOXALINE1]
2 | 0.7 | Cl.Cn1cc(C2=C(c3ccc4cc5n(c4c3)CCC(CN)C5)C(=O)NC2=O)c2ccccc21 (configuration not stated)
3 | 0 | CC(C)c1nn(-c2c(Cl)cccc2Cl)c2nc(Cc3ccc(OCCO)cc3)[nH]c(=O)c12

Test system: not listed separately
Experiment: Inhibition of Cdk4/cyclin D1
Conditions: not given

Row | IC50 [nM] | Structure (SMILES)
4 | 839 | CC(C)c1nn(-c2c(Cl)cccc2Cl)c2nc(Cc3ccc(OCCO)cc3)[nH]c(=O)c12

Molecular target: Dual specificity protein kinase CLK3 (Homo sapiens) (UniProt P49761)
Conditions: not given

Row | ΔTm [°C] | Structure (SMILES)
5 | 0.5 | Nc1n[nH]c2nc3ccccc3nc12 [QUINOXALINE1]
6 | 0 | Cl.Cn1cc(C2=C(c3ccc4cc5n(c4c3)CCC(CN)C5)C(=O)NC2=O)c2ccccc21 (configuration not stated)
7 | 0.6 | CC(C)c1nn(-c2c(Cl)cccc2Cl)c2nc(Cc3ccc(OCCO)cc3)[nH]c(=O)c12

Molecular target: T1, Myotonin-protein kinase (Homo sapiens) (UniProt Q09013)
T1 sequence (whole entry): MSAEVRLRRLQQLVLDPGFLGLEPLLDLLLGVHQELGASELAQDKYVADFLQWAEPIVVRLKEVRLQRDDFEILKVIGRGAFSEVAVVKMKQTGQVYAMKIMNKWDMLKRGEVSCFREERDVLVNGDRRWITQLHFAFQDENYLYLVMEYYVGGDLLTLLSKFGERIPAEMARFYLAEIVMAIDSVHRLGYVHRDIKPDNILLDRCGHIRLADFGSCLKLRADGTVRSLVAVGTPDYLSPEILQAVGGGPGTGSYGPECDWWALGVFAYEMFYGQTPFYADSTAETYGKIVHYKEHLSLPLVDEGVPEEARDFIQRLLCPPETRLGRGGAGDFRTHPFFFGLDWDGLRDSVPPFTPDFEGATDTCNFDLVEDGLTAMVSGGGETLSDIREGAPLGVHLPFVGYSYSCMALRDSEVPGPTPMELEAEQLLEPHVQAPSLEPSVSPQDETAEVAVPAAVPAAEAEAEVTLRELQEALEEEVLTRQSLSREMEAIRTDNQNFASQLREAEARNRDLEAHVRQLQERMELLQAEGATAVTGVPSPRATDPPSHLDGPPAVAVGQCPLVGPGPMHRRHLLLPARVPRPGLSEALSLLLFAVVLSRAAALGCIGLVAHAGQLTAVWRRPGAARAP
Conditions: not given

Row | ΔTm [°C] | Structure (SMILES)
8 | -0.1 | Nc1n[nH]c2nc3ccccc3nc12 [QUINOXALINE1]
9 | 6 | Cl.Cn1cc(C2=C(c3ccc4cc5n(c4c3)CCC(CN)C5)C(=O)NC2=O)c2ccccc21 (configuration not stated)
10 | -1.2 | CC(C)c1nn(-c2c(Cl)cccc2Cl)c2nc(Cc3ccc(OCCO)cc3)[nH]c(=O)c12

Molecular target: Serine/threonine-protein kinase PLK1 (Homo sapiens) (UniProt P53350)
Conditions: not given

Chain of Serine/threonine-protein kinase PLK1 (Homo sapiens) (P53350 whole entry): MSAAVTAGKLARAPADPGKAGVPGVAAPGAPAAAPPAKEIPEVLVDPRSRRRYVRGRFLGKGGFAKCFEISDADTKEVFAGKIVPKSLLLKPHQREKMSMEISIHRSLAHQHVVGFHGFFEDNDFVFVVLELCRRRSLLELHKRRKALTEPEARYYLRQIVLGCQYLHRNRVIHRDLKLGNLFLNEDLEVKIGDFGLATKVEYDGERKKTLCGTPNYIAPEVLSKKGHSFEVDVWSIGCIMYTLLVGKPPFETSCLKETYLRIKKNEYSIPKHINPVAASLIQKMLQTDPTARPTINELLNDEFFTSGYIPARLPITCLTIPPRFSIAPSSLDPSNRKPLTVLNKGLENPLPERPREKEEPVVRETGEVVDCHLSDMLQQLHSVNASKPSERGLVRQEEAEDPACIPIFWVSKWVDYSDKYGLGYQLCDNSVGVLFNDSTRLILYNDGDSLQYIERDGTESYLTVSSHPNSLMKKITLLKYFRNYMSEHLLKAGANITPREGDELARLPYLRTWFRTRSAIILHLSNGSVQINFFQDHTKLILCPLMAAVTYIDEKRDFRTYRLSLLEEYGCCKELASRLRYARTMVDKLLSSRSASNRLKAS

Row | ΔTm [°C] | Structure (SMILES)
11 | 0.3 | Nc1n[nH]c2nc3ccccc3nc12 [QUINOXALINE1]
12 | 0.1 | Cl.Cn1cc(C2=C(c3ccc4cc5n(c4c3)CCC(CN)C5)C(=O)NC2=O)c2ccccc21 (configuration not stated)
13 | 1.4 | CC(C)c1nn(-c2c(Cl)cccc2Cl)c2nc(Cc3ccc(OCCO)cc3)[nH]c(=O)c12

Molecular target: Calcium/calmodulin-dependent protein kinase type II subunit alpha (Homo sapiens) (UniProt Q9UQM7)
Conditions: not given

Row | ΔTm [°C] | Structure (SMILES)
14 | 0.7 | Nc1n[nH]c2nc3ccccc3nc12 [QUINOXALINE1]
15 | 1.4 | Cl.Cn1cc(C2=C(c3ccc4cc5n(c4c3)CCC(CN)C5)C(=O)NC2=O)c2ccccc21 (configuration not stated)
16 | 0.4 | CC(C)c1nn(-c2c(Cl)cccc2Cl)c2nc(Cc3ccc(OCCO)cc3)[nH]c(=O)c12

Molecular target: Mitogen-activated protein kinase 3 (Homo sapiens, UniProt P27361)
Conditions: not given

Chain of Mitogen-activated protein kinase 3 (P27361 whole entry): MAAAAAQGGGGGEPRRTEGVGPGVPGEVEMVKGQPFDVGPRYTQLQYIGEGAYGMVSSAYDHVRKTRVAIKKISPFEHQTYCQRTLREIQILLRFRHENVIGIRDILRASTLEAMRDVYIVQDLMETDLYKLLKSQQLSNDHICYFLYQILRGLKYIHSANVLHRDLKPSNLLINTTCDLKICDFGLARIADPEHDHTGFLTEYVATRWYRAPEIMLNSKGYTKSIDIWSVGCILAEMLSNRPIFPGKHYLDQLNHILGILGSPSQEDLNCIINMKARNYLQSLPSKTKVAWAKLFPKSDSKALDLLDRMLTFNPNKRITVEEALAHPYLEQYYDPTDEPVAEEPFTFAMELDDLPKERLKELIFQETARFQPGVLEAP

Row | ΔTm [°C] | Structure (SMILES)
17 | 0.3 | Nc1n[nH]c2nc3ccccc3nc12 [QUINOXALINE1]
18 | -0.5 | Cl.Cn1cc(C2=C(c3ccc4cc5n(c4c3)CCC(CN)C5)C(=O)NC2=O)c2ccccc21 (configuration not stated)
19 | 3.4 | CC(C)c1nn(-c2c(Cl)cccc2Cl)c2nc(Cc3ccc(OCCO)cc3)[nH]c(=O)c12

Molecular target: Glycogen synthase kinase-3 beta (Homo sapiens, UniProt P49841)
Experiment: Inhibition of GSK3-beta
Conditions: read-out: IC50

Row | IC50 [nM] | Structure (SMILES)
20 | 1000 | Nc1n[nH]c2nc3ccccc3nc12 [QUINOXALINE1]

Test system: not listed separately
Experiment: Inhibition of Cdk5/p35
Conditions: not given

Row | IC50 [nM] | Structure (SMILES)
21 | 10 | CC(C)c1nn(-c2c(Cl)cccc2Cl)c2nc(Cc3ccc(OCCO)cc3)[nH]c(=O)c12

Molecular target: Calcium/calmodulin-dependent protein kinase type II subunit gamma (Homo sapiens) (UniProt Q13555)
Conditions: not given

Chain of Calcium/calmodulin-dependent protein kinase type II subunit gamma (Homo sapiens) (Q13555 whole entry): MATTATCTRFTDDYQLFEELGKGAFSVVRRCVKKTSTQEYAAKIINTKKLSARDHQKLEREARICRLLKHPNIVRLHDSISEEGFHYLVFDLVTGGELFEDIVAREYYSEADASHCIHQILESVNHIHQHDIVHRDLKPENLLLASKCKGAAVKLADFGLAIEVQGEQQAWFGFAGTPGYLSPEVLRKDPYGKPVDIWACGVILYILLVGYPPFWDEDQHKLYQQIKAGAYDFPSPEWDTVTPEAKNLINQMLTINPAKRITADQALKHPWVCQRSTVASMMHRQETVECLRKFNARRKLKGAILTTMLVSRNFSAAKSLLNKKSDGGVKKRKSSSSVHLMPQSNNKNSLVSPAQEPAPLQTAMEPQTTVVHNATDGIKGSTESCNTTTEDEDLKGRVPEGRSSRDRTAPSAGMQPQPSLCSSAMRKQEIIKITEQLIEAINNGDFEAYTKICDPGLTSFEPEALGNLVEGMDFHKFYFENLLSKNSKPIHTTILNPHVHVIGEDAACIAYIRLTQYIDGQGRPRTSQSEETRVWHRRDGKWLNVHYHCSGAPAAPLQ

Row | ΔTm [°C] | Structure (SMILES)
22 | 0.4 | Nc1n[nH]c2nc3ccccc3nc12 [QUINOXALINE1]
23 | 1.1 | Cl.Cn1cc(C2=C(c3ccc4cc5n(c4c3)CCC(CN)C5)C(=O)NC2=O)c2ccccc21 (configuration not stated)
24 | 0.7 | CC(C)c1nn(-c2c(Cl)cccc2Cl)c2nc(Cc3ccc(OCCO)cc3)[nH]c(=O)c12

Molecular target: TRAF2 and NCK-interacting protein kinase (Homo sapiens) (UniProt Q9UKE5)
Conditions: not given

Chain of TRAF2 and NCK-interacting protein kinase (Homo sapiens) (Q9UKE5 whole entry, looked up): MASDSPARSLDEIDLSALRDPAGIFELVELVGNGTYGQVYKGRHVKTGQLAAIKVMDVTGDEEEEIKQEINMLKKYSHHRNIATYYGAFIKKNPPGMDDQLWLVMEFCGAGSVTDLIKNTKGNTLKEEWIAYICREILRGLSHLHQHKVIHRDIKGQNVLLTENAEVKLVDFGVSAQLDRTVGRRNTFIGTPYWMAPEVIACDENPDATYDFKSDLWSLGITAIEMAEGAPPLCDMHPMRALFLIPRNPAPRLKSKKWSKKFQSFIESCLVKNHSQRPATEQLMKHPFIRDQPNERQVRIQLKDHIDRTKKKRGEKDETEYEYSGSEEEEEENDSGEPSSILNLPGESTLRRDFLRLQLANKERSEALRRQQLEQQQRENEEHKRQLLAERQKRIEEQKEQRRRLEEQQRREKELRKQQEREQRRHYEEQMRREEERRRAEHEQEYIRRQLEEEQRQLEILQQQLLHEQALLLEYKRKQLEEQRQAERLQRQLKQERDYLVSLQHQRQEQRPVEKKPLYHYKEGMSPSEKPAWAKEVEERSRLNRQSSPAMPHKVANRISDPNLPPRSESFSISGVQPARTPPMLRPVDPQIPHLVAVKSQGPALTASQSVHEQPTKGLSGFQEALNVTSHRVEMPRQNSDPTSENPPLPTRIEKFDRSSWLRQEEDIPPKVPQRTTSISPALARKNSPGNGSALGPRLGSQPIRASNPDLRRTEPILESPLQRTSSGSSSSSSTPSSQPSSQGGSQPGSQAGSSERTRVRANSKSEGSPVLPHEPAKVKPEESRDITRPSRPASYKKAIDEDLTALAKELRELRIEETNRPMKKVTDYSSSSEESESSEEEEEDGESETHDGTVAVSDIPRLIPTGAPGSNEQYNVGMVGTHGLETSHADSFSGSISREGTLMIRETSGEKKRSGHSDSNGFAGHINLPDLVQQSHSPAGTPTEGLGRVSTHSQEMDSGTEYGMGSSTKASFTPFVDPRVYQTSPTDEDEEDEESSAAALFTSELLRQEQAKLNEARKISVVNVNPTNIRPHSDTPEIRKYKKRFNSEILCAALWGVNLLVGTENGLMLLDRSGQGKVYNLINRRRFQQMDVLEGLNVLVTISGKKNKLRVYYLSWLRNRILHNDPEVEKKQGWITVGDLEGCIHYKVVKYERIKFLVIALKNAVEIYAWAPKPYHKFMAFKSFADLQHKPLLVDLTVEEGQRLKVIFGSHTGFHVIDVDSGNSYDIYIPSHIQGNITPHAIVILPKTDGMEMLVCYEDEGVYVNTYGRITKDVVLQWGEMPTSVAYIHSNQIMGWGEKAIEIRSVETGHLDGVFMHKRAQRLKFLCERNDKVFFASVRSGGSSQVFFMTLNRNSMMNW

Row | ΔTm [°C] | Structure (SMILES)
25 | 0.7 | Nc1n[nH]c2nc3ccccc3nc12 [QUINOXALINE1]
26 | 0.3 | Cl.Cn1cc(C2=C(c3ccc4cc5n(c4c3)CCC(CN)C5)C(=O)NC2=O)c2ccccc21 (configuration not stated)
27 | 0 | CC(C)c1nn(-c2c(Cl)cccc2Cl)c2nc(Cc3ccc(OCCO)cc3)[nH]c(=O)c12

Molecular target: Calcium/calmodulin-dependent protein kinase type II subunit beta (Homo sapiens) (UniProt Q13554)
Conditions: not given

Chain of Calcium/calmodulin-dependent protein kinase type II subunit beta (Homo sapiens) (Q13554 whole entry): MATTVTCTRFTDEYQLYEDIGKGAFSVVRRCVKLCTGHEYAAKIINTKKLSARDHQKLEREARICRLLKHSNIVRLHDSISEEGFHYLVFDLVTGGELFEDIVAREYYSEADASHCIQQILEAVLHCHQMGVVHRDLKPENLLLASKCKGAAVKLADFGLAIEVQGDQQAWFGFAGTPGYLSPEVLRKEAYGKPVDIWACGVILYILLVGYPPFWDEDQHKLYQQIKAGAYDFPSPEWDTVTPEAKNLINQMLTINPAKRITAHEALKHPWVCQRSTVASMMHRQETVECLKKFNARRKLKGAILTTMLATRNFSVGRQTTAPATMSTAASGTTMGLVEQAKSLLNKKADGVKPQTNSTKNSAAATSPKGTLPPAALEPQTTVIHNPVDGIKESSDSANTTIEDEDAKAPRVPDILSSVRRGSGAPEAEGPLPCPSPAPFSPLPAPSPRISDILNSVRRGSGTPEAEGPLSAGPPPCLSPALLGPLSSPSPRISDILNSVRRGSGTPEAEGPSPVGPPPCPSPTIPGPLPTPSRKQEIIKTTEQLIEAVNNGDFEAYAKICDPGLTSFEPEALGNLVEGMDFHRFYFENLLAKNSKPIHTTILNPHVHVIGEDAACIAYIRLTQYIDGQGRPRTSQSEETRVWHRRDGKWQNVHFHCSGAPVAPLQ

Row | ΔTm [°C] | Structure (SMILES)
28 | 0.3 | Nc1n[nH]c2nc3ccccc3nc12 [QUINOXALINE1]
29 | 1.2 | Cl.Cn1cc(C2=C(c3ccc4cc5n(c4c3)CCC(CN)C5)C(=O)NC2=O)c2ccccc21 (configuration not stated)
30 | 0.9 | CC(C)c1nn(-c2c(Cl)cccc2Cl)c2nc(Cc3ccc(OCCO)cc3)[nH]c(=O)c12

Molecular target: T2, Serine/threonine-protein kinase VRK1 (Homo sapiens) (UniProt Q99986)
T2 sequence (whole entry): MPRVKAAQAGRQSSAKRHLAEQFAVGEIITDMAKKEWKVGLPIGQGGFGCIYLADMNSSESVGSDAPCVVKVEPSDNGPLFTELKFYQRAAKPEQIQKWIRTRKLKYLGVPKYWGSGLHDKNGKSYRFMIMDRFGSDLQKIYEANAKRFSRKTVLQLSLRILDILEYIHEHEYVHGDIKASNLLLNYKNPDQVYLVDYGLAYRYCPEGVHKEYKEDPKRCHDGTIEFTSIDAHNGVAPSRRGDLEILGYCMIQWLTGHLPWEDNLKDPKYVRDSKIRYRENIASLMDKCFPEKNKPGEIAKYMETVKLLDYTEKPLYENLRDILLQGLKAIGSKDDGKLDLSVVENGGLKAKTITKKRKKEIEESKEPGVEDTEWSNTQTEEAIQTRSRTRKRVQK
Conditions: not given

Row | ΔTm [°C] | Structure (SMILES)
31 | 0.2 | Nc1n[nH]c2nc3ccccc3nc12 [QUINOXALINE1]
32 | 0.8 | Cl.Cn1cc(C2=C(c3ccc4cc5n(c4c3)CCC(CN)C5)C(=O)NC2=O)c2ccccc21 (configuration not stated)

Molecular target: Death-associated protein kinase 3 (Homo sapiens) (UniProt O43293)
Conditions: not given

Chain of Death-associated protein kinase 3 (Homo sapiens) (O43293 whole entry, looked up): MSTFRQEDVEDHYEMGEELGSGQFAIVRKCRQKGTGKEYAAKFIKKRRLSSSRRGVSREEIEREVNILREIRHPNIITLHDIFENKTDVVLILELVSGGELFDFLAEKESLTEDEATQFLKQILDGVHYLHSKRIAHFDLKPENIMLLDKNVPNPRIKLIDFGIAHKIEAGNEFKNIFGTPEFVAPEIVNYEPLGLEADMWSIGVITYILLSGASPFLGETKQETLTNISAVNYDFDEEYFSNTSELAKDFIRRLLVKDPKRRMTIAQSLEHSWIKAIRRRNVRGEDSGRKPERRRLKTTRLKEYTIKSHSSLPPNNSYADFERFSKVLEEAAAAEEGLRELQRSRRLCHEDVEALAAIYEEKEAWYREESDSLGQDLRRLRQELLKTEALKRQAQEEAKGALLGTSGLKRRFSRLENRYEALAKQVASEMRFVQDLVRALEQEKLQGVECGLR

Row | Structure (SMILES) | ΔTm [°C]
33 | Nc1n[nH]c2nc3ccccc3nc12 [QUINOXALINE1] | 1
34 | Cl.Cn1cc(C2=C(c3ccc4cc5n(c4c3)CCC(CN)C5)C(=O)NC2=O)c2ccccc21 (configuration not stated) | 0.7
35 | CC(C)c1nn(-c2c(Cl)cccc2Cl)c2nc(Cc3ccc(OCCO)cc3)[nH]c(=O)c12 | 6.2

Molecular target: Casein kinase I isoform gamma-1 (Homo sapiens) (UniProt Q9HCP0)
Conditions: not given

Row | ΔTm [°C] | Structure (SMILES)
36 | 0.7 | Nc1n[nH]c2nc3ccccc3nc12 [QUINOXALINE1]
37 | 0.5 | Cl.Cn1cc(C2=C(c3ccc4cc5n(c4c3)CCC(CN)C5)C(=O)NC2=O)c2ccccc21 (configuration not stated)
38 | 0.1 | CC(C)c1nn(-c2c(Cl)cccc2Cl)c2nc(Cc3ccc(OCCO)cc3)[nH]c(=O)c12

Molecular target: Myosin light chain kinase, smooth muscle (Homo sapiens, UniProt Q15746)
Experiment: Inhibition of myosin light chain kinase
Conditions: not given

Row | IC50 [nM] | Structure (SMILES)
39 | 3700 | Cl.Cn1cc(C2=C(c3ccc4cc5n(c4c3)CCC(CN)C5)C(=O)NC2=O)c2ccccc21 (configuration not stated)

Molecular target: Dual specificity protein kinase CLK2 (Homo sapiens) (UniProt P49760)
Conditions: not given

Row | ΔTm [°C] | Structure (SMILES)
40 | 1.4 | Nc1n[nH]c2nc3ccccc3nc12 [QUINOXALINE1]
41 | 1 | Cl.Cn1cc(C2=C(c3ccc4cc5n(c4c3)CCC(CN)C5)C(=O)NC2=O)c2ccccc21 (configuration not stated)
42 | 1.3 | CC(C)c1nn(-c2c(Cl)cccc2Cl)c2nc(Cc3ccc(OCCO)cc3)[nH]c(=O)c12

Molecular target: Calcium/calmodulin-dependent protein kinase type II subunit delta (Homo sapiens) (UniProt Q13557)
Conditions: not given

Row | ΔTm [°C] | Structure (SMILES)
43 | -0.1 | Nc1n[nH]c2nc3ccccc3nc12 [QUINOXALINE1]
44 | -0.5 | Cl.Cn1cc(C2=C(c3ccc4cc5n(c4c3)CCC(CN)C5)C(=O)NC2=O)c2ccccc21 (configuration not stated)
45 | 0.6 | CC(C)c1nn(-c2c(Cl)cccc2Cl)c2nc(Cc3ccc(OCCO)cc3)[nH]c(=O)c12

Molecular target: Calcium/calmodulin-dependent protein kinase type 1G (Homo sapiens) (UniProt Q96NX5)
Conditions: not given

Chain of Calcium/calmodulin-dependent protein kinase type 1G (Homo sapiens) (Q96NX5 whole entry): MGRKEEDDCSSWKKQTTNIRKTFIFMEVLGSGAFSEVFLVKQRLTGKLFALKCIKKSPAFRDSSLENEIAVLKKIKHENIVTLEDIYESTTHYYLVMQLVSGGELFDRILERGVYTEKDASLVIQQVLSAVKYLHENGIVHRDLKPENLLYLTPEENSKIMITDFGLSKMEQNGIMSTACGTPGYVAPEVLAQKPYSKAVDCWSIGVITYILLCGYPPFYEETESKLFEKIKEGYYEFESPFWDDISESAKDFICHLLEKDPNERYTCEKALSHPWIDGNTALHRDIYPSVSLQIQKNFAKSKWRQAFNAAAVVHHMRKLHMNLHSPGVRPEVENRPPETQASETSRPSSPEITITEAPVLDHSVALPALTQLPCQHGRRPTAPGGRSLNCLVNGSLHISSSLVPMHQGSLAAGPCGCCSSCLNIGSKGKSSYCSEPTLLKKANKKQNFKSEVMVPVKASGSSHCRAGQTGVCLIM

Row | ΔTm [°C] | Structure (SMILES)
46 | 0.2 | Nc1n[nH]c2nc3ccccc3nc12 [QUINOXALINE1]
47 | 0.3 | Cl.Cn1cc(C2=C(c3ccc4cc5n(c4c3)CCC(CN)C5)C(=O)NC2=O)c2ccccc21 (configuration not stated)
48 | 0.3 | CC(C)c1nn(-c2c(Cl)cccc2Cl)c2nc(Cc3ccc(OCCO)cc3)[nH]c(=O)c12

Molecular target: Serine/threonine-protein kinase OSR1 (Homo sapiens) (UniProt O95747)
Conditions: not given

Chain of Serine/threonine-protein kinase OSR1 (Homo sapiens) (O95747 2-527 limits assumed): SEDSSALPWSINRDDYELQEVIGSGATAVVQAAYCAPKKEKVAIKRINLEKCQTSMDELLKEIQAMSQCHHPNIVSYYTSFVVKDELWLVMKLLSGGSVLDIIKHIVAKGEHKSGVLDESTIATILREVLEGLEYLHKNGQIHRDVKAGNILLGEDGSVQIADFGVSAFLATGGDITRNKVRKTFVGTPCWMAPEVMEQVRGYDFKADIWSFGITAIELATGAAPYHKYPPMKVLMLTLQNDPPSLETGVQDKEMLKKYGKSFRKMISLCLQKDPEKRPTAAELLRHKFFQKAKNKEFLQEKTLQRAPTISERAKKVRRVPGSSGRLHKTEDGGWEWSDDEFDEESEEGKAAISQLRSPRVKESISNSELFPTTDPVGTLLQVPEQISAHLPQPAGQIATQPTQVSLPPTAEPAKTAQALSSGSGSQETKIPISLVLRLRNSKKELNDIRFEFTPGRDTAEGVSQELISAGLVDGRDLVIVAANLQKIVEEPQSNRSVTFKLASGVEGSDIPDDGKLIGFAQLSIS

Row | ΔTm [°C] | Structure (SMILES)
49 | 0.7 | Nc1n[nH]c2nc3ccccc3nc12 [QUINOXALINE1]
50 | -0.1 | Cl.Cn1cc(C2=C(c3ccc4cc5n(c4c3)CCC(CN)C5)C(=O)NC2=O)c2ccccc21 (configuration not stated)
51 | 2.9 | CC(C)c1nn(-c2c(Cl)cccc2Cl)c2nc(Cc3ccc(OCCO)cc3)[nH]c(=O)c12

Molecular target: Dual specificity mitogen-activated protein kinase kinase 2 (Homo sapiens, UniProt P36507)
Conditions: not given

Row | ΔTm [°C] | Structure (SMILES)
52 | 0.1 | Nc1n[nH]c2nc3ccccc3nc12 [QUINOXALINE1]
53 | 0.1 | Cl.Cn1cc(C2=C(c3ccc4cc5n(c4c3)CCC(CN)C5)C(=O)NC2=O)c2ccccc21 (configuration not stated)
54 | 0.4 | CC(C)c1nn(-c2c(Cl)cccc2Cl)c2nc(Cc3ccc(OCCO)cc3)[nH]c(=O)c12

Molecular target: T3, Dual specificity mitogen-activated protein kinase kinase 6 (Homo sapiens) (UniProt P52564)
T3 sequence (whole entry): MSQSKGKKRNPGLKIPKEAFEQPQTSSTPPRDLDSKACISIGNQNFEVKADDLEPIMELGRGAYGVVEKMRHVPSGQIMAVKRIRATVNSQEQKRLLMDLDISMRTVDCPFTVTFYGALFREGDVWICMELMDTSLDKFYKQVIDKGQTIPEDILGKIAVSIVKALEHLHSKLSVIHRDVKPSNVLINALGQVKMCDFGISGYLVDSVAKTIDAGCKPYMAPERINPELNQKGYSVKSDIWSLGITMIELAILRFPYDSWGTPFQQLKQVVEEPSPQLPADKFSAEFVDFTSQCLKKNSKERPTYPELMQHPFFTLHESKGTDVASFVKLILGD
Conditions: not given

Row | ΔTm [°C] | Structure (SMILES)
55 | 0.3 | Nc1n[nH]c2nc3ccccc3nc12 [QUINOXALINE1]
56 | 1.1 | Cl.Cn1cc(C2=C(c3ccc4cc5n(c4c3)CCC(CN)C5)C(=O)NC2=O)c2ccccc21 (configuration not stated)
57 | 0.1 | CC(C)c1nn(-c2c(Cl)cccc2Cl)c2nc(Cc3ccc(OCCO)cc3)[nH]c(=O)c12
